Source: article PMC3409115, “Diverse Inhibitor Chemotypes Targeting Trypanosoma cruzi CYP51” (PLoS Neglected Tropical Diseases, 2012)

Target: T1, T. cruzi CYP51 (Trypanosoma cruzi, UniProt Q7Z1V1)
T1 construct: had the first 21 residues upstream of K22 replaced with the fragment MAKKKKK; His6 (C); made in house
Assay: HTS spectral-mode binding screen, type II difference spectra scored 0-5
Conditions: spectral mode, four serial dilutions 2 µM to 12.5 µM, 2 µM CYP51

T1 sequence (Q7Z1V1 15-481, looked up, natural form): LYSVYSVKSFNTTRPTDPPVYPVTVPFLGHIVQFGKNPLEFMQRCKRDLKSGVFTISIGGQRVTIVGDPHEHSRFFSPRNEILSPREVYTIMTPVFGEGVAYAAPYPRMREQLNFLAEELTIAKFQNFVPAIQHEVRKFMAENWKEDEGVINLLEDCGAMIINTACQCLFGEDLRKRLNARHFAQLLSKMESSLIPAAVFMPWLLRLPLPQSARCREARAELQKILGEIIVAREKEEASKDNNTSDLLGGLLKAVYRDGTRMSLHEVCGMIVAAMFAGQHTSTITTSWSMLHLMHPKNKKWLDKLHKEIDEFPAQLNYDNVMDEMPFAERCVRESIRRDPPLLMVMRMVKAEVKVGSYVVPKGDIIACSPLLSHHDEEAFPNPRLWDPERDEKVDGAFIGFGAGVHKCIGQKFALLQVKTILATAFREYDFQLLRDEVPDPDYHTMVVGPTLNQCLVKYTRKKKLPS

| Structure (SMILES) | HTS binding score |
| --- | --- |
| CCC(C)(C)c1ccc(OCC(=O)Nc2ccncc2)cc1 [Compound 58] | 4 |
| CCN(Cc1ccncc1)/C(S)=N/CCc1ccccc1 [Compound 59] | 5 |
| N=C(NOC(=O)/C=C/c1ccccc1Cl)c1ccncc1 [Compound 60] | 4 |
| O=C(c1ccncc1)N(Cc1ccccc1)Cc1ccccc1 [Compound 61] | 4 |
| Cc1cc(Cl)ccc1OCCCC(=O)Nc1cccnc1 [Compound 62] | 4 |
| CCCCNC(=O)c1cc(-c2ccncc2)nc2ccccc12 [Compound 63] | 5 |
| CC(C)N(CCc1ccncc1)/C(S)=N/C1CCCCC1 [Compound 64] | 5 |
| COc1ccc(-c2[nH]nc3c2C(c2cccnc2)NC3=O)cc1 (stereo not shown) [Compound 65] | 4 |
| O=C(NCCCn1ccnc1)c1ccccc1Br [Compound 66] | 4 |
| CN1C(=O)c2[nH]nc(-c3ccc(F)cc3)c2C1c1cccnc1 (stereo not shown) [Compound 67] | 5 |
| COc1ccc(-c2cc(C(=O)NCc3cccnc3)[nH]n2)cc1 [Compound 68] | 4 |
| N=C(NOC(=O)c1ccc(Br)o1)c1ccncc1 [Compound 69] | 4 |
| O=C(NCCc1ccncc1)Nc1ccc(Cl)c(Cl)c1 [Compound 70] | 4 |
| N=C(NOS(=O)(=O)c1ccc(Cl)cc1)c1ccncc1 [Compound 71] | 5 |
| CCOc1cc(S(=O)(=O)Nc2cccnc2)ccc1Cl [Compound 72] | 4 |
| COC(=O)C1=C(N)Oc2cc(C)oc(=O)c2C1c1cccnc1 (stereo not shown) [Compound 73] | 4 |
| CCCC/N=C(\S)N1CCn2cccc2C1c1cccnc1 (stereo not shown) [Compound 74] | 4 |
| O=C(c1cc(-c2ccncc2)nc2ccccc12)N1CCCCC1 [Compound 76] | 5 |
| Cc1cc(Cl)ccc1OCCCC(=O)NCc1cccnc1 [Compound 77] | 4 |
| Cc1cc(Cl)ccc1OCCCC(=O)NCc1ccncc1 [Compound 78] | 4 |
| CCn1c(C(=O)NCc2cccnc2)cc2oc3ccccc3c21 [Compound 79] | 4 |
| O=C(Cc1cccc(O)c1)Nc1cc(-c2ccncc2)cnc1O [Compound 80] | 4 |
| N#Cc1nc(COc2ccccc2)oc1NCCCn1ccnc1 [Compound 81] | 4 |

| Structure (SMILES) | HTS binding score |
| --- | --- |
| O=C(CNCc1cccnc1)Nc1ccc(OC(F)(F)F)cc1 [Compound 82] | 4 |
| CC1=NN(C(=O)COc2ccccc2C)C(O)(c2cccnc2)C1 (stereo not shown) [Compound 83] | 4 |
| COc1cccc(-c2noc(C(=O)NCCCn3ccnc3)n2)c1 [Compound 84] | 4 |
| Cc1cc(C=C2C(=O)c3ccccc3C2=O)c(C)n1-c1ccncc1 [Compound 85] | 4 |
| O=C(CCc1nc(-c2ccc(Cl)cc2)no1)Nc1cccnc1 [Compound 86] | 4 |
| Cc1[nH]c2ccccc2c1C(Nc1ccc(F)cc1)c1ccncc1 (stereo not shown) [Compound 87] | 4 |
| Cc1[nH]c2ccccc2c1C(Nc1cccc(F)c1)c1cccnc1 (stereo not shown) [Compound 88] | 4 |
| COc1ccccc1C(=O)O/N=C(\c1ccccc1)c1ccncc1 [Compound 89] | 4 |
| COc1ccc2nc3oc(C(=O)NCc4cccnc4)cc3cc2c1 [Compound 90] | 5 |
| COc1ccc(NC(=O)Nc2ccc(Cc3ccncc3)cc2)cc1 [Compound 91] | 5 |
| Cc1c(C(=O)Nc2ccncc2)sc2nc(-c3ccccc3)cn12 [Compound 92] | 4 |
| O=C(NCc1ccncc1)C(Sc1ccccc1)c1ccccc1 (stereo not shown) [Compound 93] | 4 |
| C=CCn1c(=O)c(C(=O)NCc2ccncc2)c(O)c2ccccc21 [Compound 94] | 4 |
| O=C(NCc1cccnc1)c1cc2c(=O)oc3ccccc3c2s1 [Compound 95] | 5 |
| COC(=O)c1sccc1NC(=O)CSCCc1ccncc1 [Compound 96] | 4 |
| CCc1nc(SCc2cccnc2)c(C#N)c(C(F)(F)F)c1C [Compound 97] | 5 |
| O=c1c2cnn(-c3ccc(Cl)cc3)c2ncn1Cc1cccnc1 [Compound 98] | 5 |
| Nc1cc(NC(=O)c2cccc(Cl)c2)cc(Oc2cccnc2)c1 [Compound 100] | 4 |
| O=C(CSCc1c(Cl)cccc1Cl)NCc1cccnc1 [Compound 102] | 4 |
| O=C(NCc1cccnc1)c1ccc(COc2ccccc2Cl)o1 [Compound 103] | 4 |
| CCOC(=O)C1=C(C)N(C)C(C)=C(C(=O)OCC)C1c1ccncc1 [Compound 104] | 5 |
| CC(C)(C)Nc1c(-c2ccncc2)nc2ccc(Br)cn12 [Compound 105] | 4 |
| COc1ccc(C(=O)C(OC(=O)c2ccncc2)c2ccccc2)cc1 (stereo not shown) [Compound 106] | 4 |

| Structure (SMILES) | HTS binding score |
| --- | --- |
| O=C(c1ccc(Cl)cc1)C(Oc1ccc(Cl)cc1)n1cncn1 (stereo not shown) [Compound 107] | 5 |
| COc1cc(OC)cc(C(=O)Nc2ccc(Cc3ccncc3)cc2)c1 [Compound 108] | 4 |
| Cc1nnc(NCc2cccnc2)c2c1nnn2Cc1ccc(F)cc1 [Compound 109] | 5 |
| Cc1ccc(S(=O)(=O)NCCCOC(=O)Nc2ccncc2)cc1 [Compound 110] | 5 |
| Cc1ccc(NC(=O)C23CC4CC(C2)CC(n2cncn2)(C4)C3)c(C)c1 [Compound 111] | 5 |
| Cc1ccc(Cl)cc1-n1ncc2c(NCc3cccnc3)ncnc21 [Compound 112] | 4 |
| Cc1ccccc1CSCc1ccc(C(=O)NCc2cccnc2)o1 [Compound 113] | 4 |
| CC1(C)CC(=O)C2=C(C1)c1c(ccc3ccccc13)NC2c1cccnc1 (stereo not shown) [Compound 114] | 5 |
| C/C(=N\OC(=O)c1c(-c2ccccc2Cl)noc1C)c1ccncc1 [Compound 115] | 5 |
| O=C(/C(=C/c1ccc(F)cc1)n1cncn1)c1ccc(Cl)cc1Cl [Compound 116] | 4 |
| c1cc(-c2nnn(CCOCCn3nnc(-c4ccncc4)n3)n2)ccn1 [Compound 117] | 4 |
| CCc1cc2c(cc3c(=O)n(CC(=O)NCc4cccnc4)ncn32)s1 [Compound 118] | 4 |
| c1ccc(-c2cc(NCCCn3ccnc3)n3c(n2)nc2ccccc23)cc1 [Compound 119] | 4 |
| COc1cccc(CNCc2cccnc2)c1OCc1ccc(Cl)cc1 [Compound 120] | 4 |
| O=S(=O)(c1ccc(-c2csc(-c3cccnc3)n2)cc1)N1CCCC1 [Compound 121] | 4 |
| COc1ccc(-c2nc3n(n2)C(c2cccnc2)C2=C(O)CCCC2=N3)cc1 (stereo not shown) [Compound 122] | 5 |
| Cc1ccc(Sc2c(C(=O)NCc3cccnc3)[nH]c3ccccc23)cc1 [Compound 123] | 4 |
| COCc1cc(C)nc2c1C(=O)NC(c1cccnc1)N2Cc1ccccc1 (stereo not shown) [Compound 124] | 4 |
| O=C(Nc1ccc(F)cc1)c1ccc2c(c1)C(=O)N(Cc1cccnc1)C2=O [Compound 125] | 4 |
| O=C(NCCCn1ccnc1)C1CC(c2cccc(Br)c2)=NO1 (stereo not shown) [Compound 126] | 4 |
| Cc1sc2nc(SCC(=O)NCCCn3ccnc3)nc(O)c2c1C [Compound 127] | 4 |
